Measured values taken from patent US6613718B2, “Aryl ether derivatives and processes for their preparation and herbicidal and desiccant compositions containing them” (Ishihara Sangyo Kaisha, Ltd., priority 2001, dated 2003).

Tests used:
[1] = Pre-emerge herbicidal activity of mixtures with Compound 1-1 and other herbicides, observed 64 days after treatment; format: in vivo; conditions: 1-1 alone 50 g ai/ha
Description: (§1) The data in Table XI and Table XII show the results when compounds 1-1 and 2-1 were tested as mixtures with other herbicides. Observations in Table XI were made 64 days after treatment while those in Table XII were made 56 days after treatment.

[2] = Pre-emerge herbicidal activity of mixtures with Compound 2-1 and other herbicides, observed 56 days after treatment; format: in vivo; conditions: 2-1 alone 200 g ai/ha
Description: as §1

[3] = system: soybean (Glycine max L., var. Pella 86, SOY); experiment: Pre-emerge greenhouse screening, crop safety (phytotoxicity rating); format: in vivo; conditions: 14 days after application
How it was run: (§2)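 Ratings taken 14 days after treatment on a 0–100 scale, 100 meaning complete plant death. Post-emerge: 2-3 leaf plants, 0.25% v/v surfactant added; pre-emerge: seeds sown a day ahead, soil surface-watered after spraying. Rates 15–1000 g ai/ha in acetone, 187 l/ha.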

[4] = system: field corn (Zea mays L., var. Dekalb 535, CORN); experiment: as above; format: in vivo; conditions: 14 days after application
How it was run: as §2

[5] = system: upland rice (Oryza sp., var.Tebonnet, RICE); experiment: as above; format: in vivo; conditions: 14 days after application
How it was run: as §2

[6] = system: lambsquarters (Chenopodium album, CHEAL); experiment: Post-emerge greenhouse herbicide activity screening, phytotoxicity rating; format: in vivo
How it was run: as §2

[7] = system: sicklepod (Cassia obtusifolia, CASOB); experiment: as above; format: in vivo
How it was run: as §2

[8] = system: velvetleaf (Abutilon theophrasti, ABUTH); experiment: as above; format: in vivo; conditions: 14 days after application
How it was run: as §2

[9] = system: johnsongrass (Sorghum halepense, SORHA); experiment: as above; format: in vivo; conditions: 14 days after application
How it was run: as §2

[10] = system: large crabgrass (Digitaria sanguinalis, DIGSA); experiment: as above; format: in vivo; conditions: 14 days after application
How it was run: as §2

[11] = system: redroot pigweed (Amaranthus retroflexus, AMARE); experiment: as above; format: in vivo
How it was run: as §2

[12] = system: ivyleaf morningglory (Ipomoea hederacea, IPOHE); experiment: as above; format: in vivo; conditions: 14 days after application
How it was run: as §2

[13] = system: common ragweed (Ambrosia artemisiifolia L., AMBEL); experiment: as above; format: in vivo
How it was run: as §2

[14] = system: barnyardgrass (Echinochloa crus-galli, ECHCG); experiment: as above; format: in vivo; conditions: 14 days after application
How it was run: as §2

[15] = system: green foxtail (Setaria viridis, SETVI); experiment: as above; format: in vivo
How it was run: as §2

[16] = system: field corn (Zea mays L., var. Dekalb 535, CORN); experiment: Post-emerge greenhouse screening, crop safety / corn selectivity (phytotoxicity rating); format: in vivo; conditions: 14 days after application
How it was run: as §2

[17] = as above; format: in vivo, Zea mays L.; conditions: Zea mays (field corn), in vivo
How it was run: as §2

[18] = system: lambsquarters (Chenopodium album, CHEAL); experiment: Pre-emerge greenhouse herbicide activity screening, phytotoxicity rating; format: in vivo; conditions: 14 days after application
How it was run: as §2

[19] = system: sicklepod (Cassia obtusifolia, CASOB); experiment: as above; format: in vivo; conditions: 14 days after application
How it was run: as §2

[20] = system: velvetleaf (Abutilon theophrasti, ABUTH); experiment: as above; format: in vivo; conditions: 14 days after application
How it was run: as §2

[21] = system: johnsongrass (Sorghum halepense, SORHA); experiment: as above; format: in vivo; conditions: 14 days after application
How it was run: as §2

[22] = system: large crabgrass (Digitaria sanguinalis, DIGSA); experiment: as above; format: in vivo; conditions: 14 days after application
How it was run: as §2

[23] = system: redroot pigweed (Amaranthus retroflexus, AMARE); experiment: as above; format: in vivo; conditions: 14 days after application
How it was run: as §2

[24] = system: ivyleaf morningglory (Ipomoea hederacea, IPOHE); experiment: as above; format: in vivo; conditions: 14 days after application
How it was run: as §2

[25] = system: common ragweed (Ambrosia artemisiifolia L., AMBEL); experiment: as above; format: in vivo; conditions: 14 days after application
How it was run: as §2

[26] = system: barnyardgrass (Echinochloa crus-galli, ECHCG); experiment: as above; format: in vivo; conditions: 14 days after application
How it was run: as §2

[27] = system: green foxtail (Setaria viridis, SETVI); experiment: as above; format: in vivo; conditions: 14 days after application
How it was run: as §2

[28] = system: soybean (Glycine max L., var. Pella 86, SOY); experiment: Post-emerge greenhouse screening, crop safety (phytotoxicity rating); format: in vivo; conditions: 14 days after application
How it was run: as §2

[29] = system: upland rice (Oryza sp., var.Tebonnet, RICE); experiment: as above; format: in vivo; conditions: 14 days after application
How it was run: as §2

[30] = 125 g ai/ha, 14 days after application
[31] = 250 g ai/ha, 14 days after application

Cn1c(C(F)(F)F)cc(=O)n(-c2cc(Oc3ncccn3)c(Cl)cc2F)c1=S [1-1.]
92: AMBEL pre-emerge herbicidal activity ([1]; AMBEL)
0: CORN damage, pre-emerge ([1]; CORN)
87: ABUTH pre-emerge herbicidal activity ([1]; ABUTH)
93: AMARE pre-emerge herbicidal activity ([1]; AMARE)
90: SETVI pre-emerge herbicidal activity ([1]; SETVI)
95: CHEAL pre-emerge herbicidal activity ([1]; CHEAL)

Cn1c(=S)n(C)c(=O)n(-c2cc(Oc3ncccn3)c(Cl)cc2F)c1=O [2-1.]
0: CORN damage, pre-emerge ([2]; CORN)
90: SETVI pre-emerge herbicidal activity ([2]; SETVI)
93: AMARE pre-emerge herbicidal activity ([2]; AMARE)
95: ABUTH pre-emerge herbicidal activity ([2]; ABUTH) | AMBEL pre-emerge herbicidal activity ([2]; AMBEL) | CHEAL pre-emerge herbicidal activity ([2]; CHEAL)

Cn1c(C(F)(F)F)cc(=O)n(-c2cc(Oc3ncccn3)c(Cl)cc2F)c1=S [Compound 1-1, 3-[4-Chloro-2-fluoro-5-(2-pyrimidinyloxy)phenyl]-2,3-dihydro-1-methyl-2-thioxo-6-(trifluoromethyl)-4(1H)-pyrimidinone]
90: DIGSA phytotoxicity rating (0-100 scale) ([10]; 250 g ai/ha)
99: CASOB phytotoxicity rating (0-100 scale) ([7]; 62.5 g ai/ha) | CASOB phytotoxicity rating (0-100 scale) [7, 30] | CASOB phytotoxicity rating (0-100 scale) [7, 31] | AMBEL phytotoxicity rating (0-100 scale) [13, 30] | SETVI phytotoxicity rating (0-100 scale) ([15]; 62.5 g ai/ha)
8: corn phytotoxicity rating (0-100 scale) at 14 days ([17]; 31.3 g ai/ha) | corn phytotoxicity rating (0-100 scale) at 14 days ([17]; 62.5 g ai/ha)
80: SOY crop damage, phytotoxicity rating (0-100 scale) ([3]; 250 g ai/ha)
85: SETVI phytotoxicity rating (0-100 scale) ([15]; 31.3 g ai/ha)
98: SORHA phytotoxicity rating (0-100 scale) ([9]; 250 g ai/ha) | AMBEL phytotoxicity rating (0-100 scale) ([13]; 62.5 g ai/ha)
100: SOY crop damage, phytotoxicity rating (0-100 scale) ([3]; 125 g ai/ha) | CORN crop damage, phytotoxicity rating (0-100 scale) ([4]; 125 g ai/ha) | CORN crop damage, phytotoxicity rating (0-100 scale) ([4]; 250 g ai/ha) | RICE crop damage, phytotoxicity rating (0-100 scale) ([5]; 125 g ai/ha) | RICE crop damage, phytotoxicity rating (0-100 scale) ([5]; 250 g ai/ha) | CHEAL phytotoxicity rating (0-100 scale) ([6]; 31.3 g ai/ha) | CHEAL phytotoxicity rating (0-100 scale) ([6]; 62.5 g ai/ha) | CHEAL phytotoxicity rating (0-100 scale) [6, 30] | CHEAL phytotoxicity rating (0-100 scale) [6, 31] | ABUTH phytotoxicity rating (0-100 scale) ([8]; 125 g ai/ha) | ABUTH phytotoxicity rating (0-100 scale) ([8]; 250 g ai/ha) | AMARE phytotoxicity rating (0-100 scale) ([11]; 31.3 g ai/ha) | AMARE phytotoxicity rating (0-100 scale) ([11]; 62.5 g ai/ha) | AMARE phytotoxicity rating (0-100 scale) [11, 30] | AMARE phytotoxicity rating (0-100 scale) [11, 31] | IPOHE phytotoxicity rating (0-100 scale) ([12]; 125 g ai/ha) | IPOHE phytotoxicity rating (0-100 scale) ([12]; 250 g ai/ha) | AMBEL phytotoxicity rating (0-100 scale) [13, 31] | ECHCG phytotoxicity rating (0-100 scale) ([14]; 125 g ai/ha) | ECHCG phytotoxicity rating (0-100 scale) ([14]; 250 g ai/ha) | SETVI phytotoxicity rating (0-100 scale) [15, 30] | SETVI phytotoxicity rating (0-100 scale) [15, 31] | CHEAL phytotoxicity rating (0-100 scale) ([18]; 125 g ai/ha) | CHEAL phytotoxicity rating (0-100 scale) ([18]; 250 g ai/ha) | CASOB phytotoxicity rating (0-100 scale) ([19]; 125 g ai/ha) | CASOB phytotoxicity rating (0-100 scale) ([19]; 250 g ai/ha) | ABUTH phytotoxicity rating (0-100 scale) ([20]; 125 g ai/ha) | ABUTH phytotoxicity rating (0-100 scale) ([20]; 250 g ai/ha) | SORHA phytotoxicity rating (0-100 scale) ([21]; 125 g ai/ha) | SORHA phytotoxicity rating (0-100 scale) ([21]; 250 g ai/ha) | DIGSA phytotoxicity rating (0-100 scale) ([22]; 125 g ai/ha) | DIGSA phytotoxicity rating (0-100 scale) ([22]; 250 g ai/ha) | AMARE phytotoxicity rating (0-100 scale) ([23]; 125 g ai/ha) | AMARE phytotoxicity rating (0-100 scale) ([23]; 250 g ai/ha) | IPOHE phytotoxicity rating (0-100 scale) ([24]; 125 g ai/ha) | IPOHE phytotoxicity rating (0-100 scale) ([24]; 250 g ai/ha) | AMBEL phytotoxicity rating (0-100 scale) ([25]; 125 g ai/ha) | AMBEL phytotoxicity rating (0-100 scale) ([25]; 250 g ai/ha) | ECHCG phytotoxicity rating (0-100 scale) ([26]; 125 g ai/ha) | ECHCG phytotoxicity rating (0-100 scale) ([26]; 250 g ai/ha) | SETVI phytotoxicity rating (0-100 scale) ([27]; 125 g ai/ha) | SETVI phytotoxicity rating (0-100 scale) ([27]; 250 g ai/ha) | SOY crop damage, phytotoxicity rating (0-100 scale) ([28]; 125 g ai/ha) | SOY crop damage, phytotoxicity rating (0-100 scale) ([28]; 250 g ai/ha) | RICE crop damage, phytotoxicity rating (0-100 scale) ([29]; 125 g ai/ha) | RICE crop damage, phytotoxicity rating (0-100 scale) ([29]; 250 g ai/ha)
95: CASOB phytotoxicity rating (0-100 scale) ([7]; 31.3 g ai/ha) | SORHA phytotoxicity rating (0-100 scale) ([9]; 125 g ai/ha) | DIGSA phytotoxicity rating (0-100 scale) ([10]; 125 g ai/ha)
10: CORN crop damage, phytotoxicity rating (0-100 scale) ([16]; 125 g ai/ha)
15: CORN crop damage, phytotoxicity rating (0-100 scale) ([16]; 250 g ai/ha)
75: AMBEL phytotoxicity rating (0-100 scale) ([13]; 31.3 g ai/ha)

O=[N+]([O-])c1ccccc1Oc1cc(-c2nn3c(c2Cl)CCCC3)c(F)cc1Cl [Compound 6-19]
40: SOY crop damage, phytotoxicity rating (0-100 scale) ([28]; 250 g ai/ha)
35: RICE crop damage, phytotoxicity rating (0-100 scale) ([29]; 250 g ai/ha)
50: SOY crop damage, phytotoxicity rating (0-100 scale) ([3]; 250 g ai/ha) | SORHA phytotoxicity rating (0-100 scale) ([9]; 250 g ai/ha) | DIGSA phytotoxicity rating (0-100 scale) ([10]; 250 g ai/ha) | AMBEL phytotoxicity rating (0-100 scale) [13, 31] | AMBEL phytotoxicity rating (0-100 scale) ([25]; 250 g ai/ha) | ECHCG phytotoxicity rating (0-100 scale) ([26]; 250 g ai/ha)
75: CASOB phytotoxicity rating (0-100 scale) [7, 31] | CASOB phytotoxicity rating (0-100 scale) ([19]; 250 g ai/ha)
95: SETVI phytotoxicity rating (0-100 scale) ([27]; 250 g ai/ha)
60: ECHCG phytotoxicity rating (0-100 scale) ([14]; 250 g ai/ha)
3: CORN crop damage, phytotoxicity rating (0-100 scale) ([16]; 250 g ai/ha)
65: SETVI phytotoxicity rating (0-100 scale) [15, 31] | ABUTH phytotoxicity rating (0-100 scale) ([20]; 250 g ai/ha) | SORHA phytotoxicity rating (0-100 scale) ([21]; 250 g ai/ha)
90: DIGSA phytotoxicity rating (0-100 scale) ([22]; 250 g ai/ha)
98: CHEAL phytotoxicity rating (0-100 scale) [6, 31]
0: CORN crop damage, phytotoxicity rating (0-100 scale) ([4]; 250 g ai/ha) | RICE crop damage, phytotoxicity rating (0-100 scale) ([5]; 250 g ai/ha) | IPOHE phytotoxicity rating (0-100 scale) ([24]; 250 g ai/ha)
100: ABUTH phytotoxicity rating (0-100 scale) ([8]; 250 g ai/ha) | AMARE phytotoxicity rating (0-100 scale) [11, 31] | IPOHE phytotoxicity rating (0-100 scale) ([12]; 250 g ai/ha) | CHEAL phytotoxicity rating (0-100 scale) ([18]; 250 g ai/ha) | AMARE phytotoxicity rating (0-100 scale) ([23]; 250 g ai/ha)
